Results taken from patent US9938261B2, “Heterocyclic compounds and methods of use thereof” (AMBIT BIOSCIENCES CORPORATION, priority 2011, dated 2018).
pIC50, pKd: −log10 of the molar value. Each block holds one molecule with its values, some of them ahead of it.

Key:
M-NFS-60 cells = assay: M-NFS-60 cell proliferation assay (Alamar Blue); type: cell-based, mouse; conditions: Mus musculus; M-NFS-60 cell proliferation; read-out: CSF1R M-NFS-60 CTB:IC50
Outline: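 Alamar Blue reduction (3 h; 560/590 nm) measured viability after 72 h, 37 °C treatment with nine half-log compound concentrations at 0.5% DMSO. Cells: M-CSF-dependent (20 ng/mL) murine M-NFS-60 in RPMI plus 10% FBS. IC50s, averaged from duplicates, reflect half-maximal inhibition of proliferation relative to control.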

KIT = target: T1, KIT (Homo sapiens, UniProt P10721); assay: Competition binding assay, KIT Kd; conditions: competition binding
T1 construct: made in house
Outline: (§1)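 Compound displacement of kinase from bead-immobilized ligand is measured by qPCR after 1 h equilibration at room temperature. Kinases are T7 phage fusions or DNA-tagged HEK-293 products.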

CSF1R = CSF1R (Homo sapiens, UniProt P07333); assay: Competition binding assay, CSF1R Kd; set-up: made in house; conditions: competition binding
Outline: as §1

PDGFRβ = target: T2, PDGFRβ (Homo sapiens, UniProt P09619); assay: Competition binding assay, PDGFRβ Kd; conditions: competition binding
T2 construct: made in house
Outline: as §1

[1] = target: kinase panel containing either 386 or 392 distinct kinases; assay: Kinase selectivity score S10 from competition binding panel; conditions: 10 μM, panel of 386 or 392 distinct kinases
Outline: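 S10 is the number of kinases with percent-of-control under 10, divided by all distinct wild-type kinases tested, from a single 10 μM concentration. Binding measured by qPCR of kinase recovered from ligand-coated beads after 1 h equilibrium at room temperature; kinases were phage fusions or DNA-tagged HEK-293 products.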

Chain of CSF1R (P07333 20-972): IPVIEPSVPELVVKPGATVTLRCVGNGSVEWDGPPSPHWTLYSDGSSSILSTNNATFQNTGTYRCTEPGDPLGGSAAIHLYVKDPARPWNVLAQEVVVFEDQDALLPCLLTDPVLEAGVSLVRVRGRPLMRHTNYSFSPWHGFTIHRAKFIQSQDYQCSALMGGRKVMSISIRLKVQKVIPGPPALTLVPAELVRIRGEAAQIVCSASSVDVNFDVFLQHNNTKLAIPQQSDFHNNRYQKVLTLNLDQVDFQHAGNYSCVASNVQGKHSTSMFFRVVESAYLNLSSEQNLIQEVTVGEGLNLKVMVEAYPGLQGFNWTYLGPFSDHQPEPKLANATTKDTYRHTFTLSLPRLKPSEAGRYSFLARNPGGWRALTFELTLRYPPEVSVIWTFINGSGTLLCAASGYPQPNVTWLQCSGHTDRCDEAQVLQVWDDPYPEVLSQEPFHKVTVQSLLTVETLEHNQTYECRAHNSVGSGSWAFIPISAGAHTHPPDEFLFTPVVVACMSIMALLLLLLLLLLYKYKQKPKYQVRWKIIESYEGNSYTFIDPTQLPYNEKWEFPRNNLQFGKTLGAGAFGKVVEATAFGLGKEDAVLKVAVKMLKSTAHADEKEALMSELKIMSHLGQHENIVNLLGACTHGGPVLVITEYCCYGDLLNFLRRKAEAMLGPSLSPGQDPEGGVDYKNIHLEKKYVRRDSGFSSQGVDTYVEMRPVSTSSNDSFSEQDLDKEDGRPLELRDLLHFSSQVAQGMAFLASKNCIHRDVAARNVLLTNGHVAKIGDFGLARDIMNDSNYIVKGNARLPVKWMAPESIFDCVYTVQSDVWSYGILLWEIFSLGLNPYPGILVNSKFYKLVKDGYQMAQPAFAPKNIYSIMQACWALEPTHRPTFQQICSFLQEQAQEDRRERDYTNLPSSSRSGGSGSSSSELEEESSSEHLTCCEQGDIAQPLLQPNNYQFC
T1 sequence (P10721 26-976): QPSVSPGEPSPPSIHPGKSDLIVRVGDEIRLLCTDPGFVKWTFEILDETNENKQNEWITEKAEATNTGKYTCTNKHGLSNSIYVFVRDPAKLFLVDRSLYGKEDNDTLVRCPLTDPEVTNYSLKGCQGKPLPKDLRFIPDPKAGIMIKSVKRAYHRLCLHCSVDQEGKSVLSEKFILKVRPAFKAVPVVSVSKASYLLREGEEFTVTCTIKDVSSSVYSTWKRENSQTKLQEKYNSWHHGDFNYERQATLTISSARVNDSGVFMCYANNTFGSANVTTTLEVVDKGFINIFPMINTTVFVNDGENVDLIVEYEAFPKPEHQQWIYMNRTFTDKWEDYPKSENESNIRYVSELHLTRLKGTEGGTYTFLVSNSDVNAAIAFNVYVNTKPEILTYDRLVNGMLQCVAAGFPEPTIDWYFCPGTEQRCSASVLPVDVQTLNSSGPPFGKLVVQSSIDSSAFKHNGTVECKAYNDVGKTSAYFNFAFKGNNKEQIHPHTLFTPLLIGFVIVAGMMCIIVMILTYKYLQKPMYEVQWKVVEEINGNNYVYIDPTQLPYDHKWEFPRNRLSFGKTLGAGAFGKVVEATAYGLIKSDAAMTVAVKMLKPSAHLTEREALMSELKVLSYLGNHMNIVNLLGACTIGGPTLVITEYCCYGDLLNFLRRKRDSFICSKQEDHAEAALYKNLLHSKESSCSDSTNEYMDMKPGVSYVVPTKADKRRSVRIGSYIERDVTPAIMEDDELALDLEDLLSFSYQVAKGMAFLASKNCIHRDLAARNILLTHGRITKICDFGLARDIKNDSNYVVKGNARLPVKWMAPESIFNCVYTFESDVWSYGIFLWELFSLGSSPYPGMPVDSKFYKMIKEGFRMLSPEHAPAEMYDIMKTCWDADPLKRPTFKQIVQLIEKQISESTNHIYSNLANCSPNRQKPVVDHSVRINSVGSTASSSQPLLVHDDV
T2 sequence (P09619 33-1106): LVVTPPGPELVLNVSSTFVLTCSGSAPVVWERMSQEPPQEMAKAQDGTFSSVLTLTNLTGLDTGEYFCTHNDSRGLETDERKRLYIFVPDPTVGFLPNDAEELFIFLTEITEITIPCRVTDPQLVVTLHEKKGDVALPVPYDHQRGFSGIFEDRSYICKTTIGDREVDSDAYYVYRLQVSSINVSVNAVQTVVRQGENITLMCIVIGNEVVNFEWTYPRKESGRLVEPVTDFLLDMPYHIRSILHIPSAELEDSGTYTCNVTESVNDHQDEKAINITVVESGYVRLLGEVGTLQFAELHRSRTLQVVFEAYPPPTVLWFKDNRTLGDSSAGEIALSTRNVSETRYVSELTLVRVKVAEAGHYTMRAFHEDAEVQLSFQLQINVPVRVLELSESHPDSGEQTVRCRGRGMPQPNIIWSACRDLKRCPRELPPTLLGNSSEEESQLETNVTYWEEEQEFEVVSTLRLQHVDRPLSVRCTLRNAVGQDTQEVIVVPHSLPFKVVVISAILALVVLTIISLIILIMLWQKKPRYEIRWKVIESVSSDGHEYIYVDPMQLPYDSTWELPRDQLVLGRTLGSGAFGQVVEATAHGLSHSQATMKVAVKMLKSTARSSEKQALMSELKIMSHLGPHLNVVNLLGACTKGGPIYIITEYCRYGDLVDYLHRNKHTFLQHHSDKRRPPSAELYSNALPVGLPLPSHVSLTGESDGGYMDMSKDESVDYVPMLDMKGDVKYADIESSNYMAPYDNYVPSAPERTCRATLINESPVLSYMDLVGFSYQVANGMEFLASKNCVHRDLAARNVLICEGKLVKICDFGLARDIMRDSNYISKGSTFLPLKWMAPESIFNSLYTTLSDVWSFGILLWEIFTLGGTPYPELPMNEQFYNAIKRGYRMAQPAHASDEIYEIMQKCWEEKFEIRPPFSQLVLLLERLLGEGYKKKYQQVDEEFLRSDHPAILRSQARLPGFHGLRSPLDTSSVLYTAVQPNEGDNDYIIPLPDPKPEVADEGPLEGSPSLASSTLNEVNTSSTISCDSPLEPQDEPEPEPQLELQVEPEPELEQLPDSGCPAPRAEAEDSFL

Compound: OC[C@@H]1CCCC[C@H]1Nc1nc2ccc(Cn3cnc4cc(Br)cnc43)cc2s1 [Example 133, ((1R,2R)-2-((6-((6-bromo-3H-imidazo[4,5-b]pyridin-3-yl)methyl)benzo[d]thiazol-2-yl)amino)cyclohexyl)methanol]
- pIC50 (M-NFS-60 cells): 6.40 to 7.30
- pKd (KIT): 6.30 to 7.00
- pKd (CSF1R): 7.70 to 8.30
- pKd (PDGFRβ): ≥ 7.30
- Kinase specificity S(10) [1]: A (A≤0.01)

Compound: OC[C@H]1CCCC[C@H]1Nc1nc2ccc(Cn3cnc4cc(Br)cnc43)cc2s1 [Example 136, ((1S,2R)-2-((6-((6-bromo-3H-imidazo[4,5-b]pyridin-3-yl)methyl)benzo[d]thiazol-2-yl)amino)cyclohexyl)methanol]
- pIC50 (M-NFS-60 cells): 6.40 to 7.30
- pKd (KIT): ≥ 7.00
- pKd (CSF1R): 7.70 to 8.30
- pKd (PDGFRβ): ≥ 7.30
- Kinase specificity S(10) [1]: B (0.01<B≤0.02)

Compound: O[C@@H]1CCCC[C@H]1Nc1nc2ccc(Cn3cnc4cc(Cl)c(Cl)nc43)cc2s1 [Example 137, (1R,2R)-2-((6-((5,6-dichloro-3H-imidazo[4,5-b]pyridin-3-yl)methyl)benzo[d]thiazol-2-yl)amino)cyclohexanol]
- pIC50 (M-NFS-60 cells): ≥ 7.30
- pKd (KIT): ≥ 7.00
- pKd (CSF1R): ≥ 8.30
- pKd (PDGFRβ): ≥ 7.30
- Kinase specificity S(10) [1]: A (A≤0.01)

Compound: CCOc1ccc2c(c1)ncn2Cc1ccc2nc(N[C@@H]3CCCC[C@H]3O)sc2c1 [Example 138, (1R,2R)-2-((6-((5-ethoxy-1H-benzo[d]imidazol-1-yl)methyl)benzo[d]thiazol-2-yl)amino)cyclohexanol]
- pIC50 (M-NFS-60 cells): ≥ 7.30
- pKd (KIT): ≥ 7.00
- pKd (CSF1R): ≥ 8.30
- pKd (PDGFRβ): ≥ 7.30
- Kinase specificity S(10) [1]: A (A≤0.01)

Compound: O[C@@H]1CCCC[C@H]1Nc1nc2ccc(Cn3cnc4cc(-n5cccn5)cnc43)cc2s1 [Example 141, (1R,2R)-2-((6-((6-(1H-pyrazol-1-yl)-3H-imidazo[4,5-b]pyridine-3-yl)methyl)benzo[d]thiazol-2-yl)amino)cyclohexanol]
- pIC50 (M-NFS-60 cells): ≥ 7.30
- pKd (KIT): ≥ 7.00
- pKd (CSF1R): ≥ 8.30
- pKd (PDGFRβ): ≥ 7.30
- Kinase specificity S(10) [1]: B (0.01<B≤0.02)

Compound: O[C@@H]1CCCC[C@H]1Nc1nc2ccc(Cc3cnc4cccnn34)cc2o1 [Example 142, (1R,2R)-2-((6-(imidazo[1,2-b]pyridazin-3-ylmethyl)benzo[d]oxazol-2-yl)amino)cyclohexanol]
- pIC50 (M-NFS-60 cells): 6.40 to 7.30
- pKd (KIT): ≥ 7.00
- pKd (CSF1R): ≥ 8.30
- pKd (PDGFRβ): ≥ 7.30
- Kinase specificity S(10) [1]: C (C>0.02)

Compound: OCc1ccc2ncc(Cc3ccc4nc(N[C@@H]5CCCC[C@H]5O)sc4c3)n2n1 [Example 144, (1R,2R)-2-((6-((6-(hydroxymethyl)imidazo[1,2-b]pyridazin-3-yl)methyl)benzo[d]thiazol-2-yl)amino)cyclohexanol]
- pIC50 (M-NFS-60 cells): 6.40 to 7.30
- pKd (KIT): 6.30 to 7.00
- pKd (CSF1R): ≥ 8.30
- pKd (PDGFRβ): 6.30 to 7.30
- Kinase specificity S(10) [1]: B (0.01<B≤0.02)

Compound: COc1ccc2ncc(Cc3ccc4nc(N[C@@H]5CCCC[C@H]5O)sc4c3)n2n1 [Example 150, (1R,2R)-2-((6-((6-methoxyimidazo[1,2-b]pyridazin-3-yl)methyl)benzo[d]thiazol-2-yl)amino)cyclohexanol]
- pIC50 (M-NFS-60 cells): 6.40 to 7.30
- pKd (KIT): ≥ 7.00
- pKd (CSF1R): ≥ 8.30
- pKd (PDGFRβ): 6.30 to 7.30
- Kinase specificity S(10) [1]: B (0.01<B≤0.02)

Compound: COc1ccc2c(c1)ncn2Cc1ccc2nc(N[C@@H]3CCCC[C@H]3O)oc2c1 [Example 151, (1R,2R)-2-((6-((5-methoxy-1H-benzo[d]imidazol-1-yl)methyl)benzo[d]oxazol-2-yl)amino)cyclohexanol]
- pIC50 (M-NFS-60 cells): 6.40 to 7.30
- pKd (KIT): ≥ 7.00
- pKd (CSF1R): 7.70 to 8.30
- pKd (PDGFRβ): ≥ 7.30
- Kinase specificity S(10) [1]: B (0.01<B≤0.02)

Compound: COCCOc1ccn2c(Cc3ccc4nc(N[C@@H]5CCCC[C@H]5O)sc4c3)cnc2c1 [Example 153, (1R,2R)-2-((6-((7-(2-methoxyethoxy)imidazo[1,2-a]pyridin-3-yl)methyl)benzo[d]thiazol-2-yl)amino)cyclohexanol]
- pIC50 (M-NFS-60 cells): 6.40 to 7.30
- pKd (KIT): 5.70 to 6.30
- pKd (CSF1R): 7.70 to 8.30
- pKd (PDGFRβ): 6.30 to 7.30
- Kinase specificity S(10) [1]: A (A≤0.01)

Compound: O[C@@H]1CCCC[C@H]1Nc1nc2cc(F)c(Cn3cnc4cccnc43)cc2s1 [Example 154, (1R,2R)-2-((6-((3H-imidazo[4,5-b]pyridin-3-yl)methyl)-5-fluorobenzo[d]thiazol-2-yl)amino)cyclohexanol]
- pIC50 (M-NFS-60 cells): 6.40 to 7.30
- pKd (KIT): 5.70 to 6.30
- pKd (CSF1R): 7.70 to 8.30
- pKd (PDGFRβ): 5.70 to 6.30
- Kinase specificity S(10) [1]: A (A≤0.01)

Further lines, with some results ahead:

- pKd (KIT): ≥ 7.00
- pKd (CSF1R): ≥ 8.30
- pKd (PDGFRβ): ≥ 7.30
- Kinase specificity S(10) [1]: C (C>0.02)
Compound: O[C@@H]1CCCC[C@H]1Nc1nc2ccc(Cn3cnc4cc(F)cnc43)cc2o1 [Example 132, (1R,2R)-2-((6-((6-fluoro-3H-imidazo[4,5-b]pyridin-3-yl)methyl)benzo[d]oxazol-2-yl)amino)cyclohexanol]
- pIC50 (M-NFS-60 cells): 6.40 to 7.30

- pKd (KIT): 6.30 to 7.00
- pKd (CSF1R): 7.70 to 8.30
- pKd (PDGFRβ): ≥ 7.30
- Kinase specificity S(10) [1]: A (A≤0.01)
Compound: Cn1nnnc1-c1cnc2c(c1)ncn2Cc1ccc2nc(N[C@@H]3CCCC[C@H]3O)sc2c1 [Example 134, (1R,2R)-2-((6-((6-(1-methyl-1H-tetrazol-5-yl)-3H-imidazo[4,5-b]pyridin-3-yl)methyl)benzo[d]thiazol-2-yl)amino)cyclohexanol]
- pIC50 (M-NFS-60 cells): 6.40 to 7.30

- pKd (KIT): 6.30 to 7.00
- pKd (CSF1R): 7.30 to 7.70
- pKd (PDGFRβ): 6.30 to 7.30
- Kinase specificity S(10) [1]: A (A≤0.01)
Compound: N#Cc1cc2ncn(Cc3ccc4nc(N[C@@H]5CCCC[C@H]5O)sc4c3)c2nc1C#N [Example 139, 3-((2-(((1R,2R)-2-hydroxycyclohexyl)amino)benzo[d]thiazol-6-yl)methyl)-3H-imidazo[4,5-b]pyridine-5,6-dicarbonitrile]
- pIC50 (M-NFS-60 cells): 5.82 to 6.40

- pKd (KIT): 5.70 to 6.30
- pKd (CSF1R): 7.70 to 8.30
- pKd (PDGFRβ): 6.30 to 7.30
- Kinase specificity S(10) [1]: A (A≤0.01)
Compound: N#Cc1cnc2c(c1)ncn2Cc1ccc2nc(N[C@@H]3CCCC[C@H]3CO)sc2c1 [Example 140, 3-((2-(((1R,2R)-2-(hydroxymethyl)cyclohexyl)amino)benzo[d]thiazol-6-yl)methyl)-3H-imidazo[4,5-b]pyridine-6-carbonitrile]
- pIC50 (M-NFS-60 cells): 5.82 to 6.40

- pKd (KIT): 5.70 to 6.30
- pKd (CSF1R): 7.70 to 8.30
- pKd (PDGFRβ): 5.70 to 6.30
- Kinase specificity S(10) [1]: B (0.01<B≤0.02)
Compound: CNC(=O)c1ccc2ncc(Cc3ccc4nc(N[C@@H]5CCCC[C@H]5O)sc4c3)n2n1 [Example 143, 3-((2-(((1R,2R)-2-hydroxycyclohexyl)amino)benzo[d]thiazol-6-yl)methyl)-N-methylimidazo[1,2-b]pyridazine-6-carboxamide]
- pIC50 (M-NFS-60 cells): 5.82 to 6.40

- pKd (KIT): 6.30 to 7.00
- pKd (CSF1R): ≥ 8.30
- pKd (PDGFRβ): ≥ 7.30
- Kinase specificity S(10) [1]: A (A≤0.01)
Compound: O[C@@H]1CCCC[C@H]1Nc1nc2ccc(Cn3cnc4cc(-n5cncn5)cnc43)cc2s1 [Example 145, (1R,2R)-2-((6-((6-(1H-1,2,4-triazol-1-yl)-3H-imidazo[4,5-b]pyridin-3-yl)methyl)benzo[d]thiazol-2-yl)amino)cyclohexanol]
- pIC50 (M-NFS-60 cells): 6.40 to 7.30

- pKd (KIT): ≥ 7.00
- pKd (CSF1R): 7.70 to 8.30
- pKd (PDGFRβ): ≥ 7.30
- Kinase specificity S(10) [1]: B (0.01<B≤0.02)
Compound: O[C@@H]1CCCC[C@H]1Nc1nc2ccc(Cn3cnc4cc(I)cnc43)cc2s1 [Example 146, (1R,2R)-2-((6-((6-iodo-3H-imidazo[4,5-b]pyridin-3-yl)methyl)benzo[d]thiazol-2-yl)amino)cyclohexanol]
- pIC50 (M-NFS-60 cells): 6.40 to 7.30

- pKd (KIT): ≥ 7.00
- pKd (CSF1R): ≥ 8.30
- pKd (PDGFRβ): ≥ 7.30
- Kinase specificity S(10) [1]: A (A≤0.01)
Compound: Oc1ccc2c(c1)ncn2Cc1ccc2nc(N[C@@H]3CCCC[C@H]3O)sc2c1 [Example 147, 1-((2-(((1R,2R)-2-hydroxycyclohexyl)amino)benzo[d]thiazol-6-yl)methyl)-1H-benzo[d]imidazol-5-ol]
- pIC50 (M-NFS-60 cells): 6.40 to 7.30

- pKd (KIT): ≥ 7.00
- pKd (CSF1R): ≥ 8.30
- pKd (PDGFRβ): 6.30 to 7.30
- Kinase specificity S(10) [1]: A (A≤0.01)
Compound: O[C@@H]1CCCC[C@H]1Nc1nc2ccc(Cn3cnc4cc(F)cc(F)c43)cc2s1 [Example 148, (1R,2R)-2-((6-((5,7-difluoro-1H-benzo[d]imidazol-1-yl)methyl)benzo[d]thiazol-2-yl)amino)cyclohexanol]
- pIC50 (M-NFS-60 cells): 6.40 to 7.30

- pKd (KIT): 6.30 to 7.00
- pKd (CSF1R): 7.70 to 8.30
- pKd (PDGFRβ): ≥ 7.30
- Kinase specificity S(10) [1]: A (A≤0.01)
Compound: O[C@@H]1CCCC[C@H]1Nc1nc2ccc(Cn3cnc4cc(OC(F)(F)F)ccc43)cc2s1 [Example 149, (1R,2R)-2-((6-((5-(trifluoromethoxy)-1H-benzo[d]imidazol-1-yl)methyl)benzo[d]thiazol-2-yl)amino)cyclohexanol]
- pIC50 (M-NFS-60 cells): 6.40 to 7.30

- pKd (KIT): ≥ 7.00
- pKd (CSF1R): 7.70 to 8.30
- pKd (PDGFRβ): 6.30 to 7.30
- Kinase specificity S(10) [1]: B (0.01<B≤0.02)
Compound: COc1ccc2ncn(Cc3ccc4nc(N[C@@H]5CCCC[C@H]5O)oc4c3)c2c1 [Example 152, (1R,2R)-2-((6-((6-methoxy-1H-benzo[d]imidazol-1-yl)methyl)benzo[d]oxazol-2-yl)amino)cyclohexanol]
- pIC50 (M-NFS-60 cells): 6.40 to 7.30
